According to paper PMC6413153, “Design, Synthesis, and Use of Novel Photoaffinity Probes in Measuring the Serum Concentration of Glycogen Phosphorylase” (Molecules, 2019):

Legend:
[1] = molecular target: T1, rabbit muscle glycogen phosphorylase a (RMGPa) (Oryctolagus cuniculus, UniProt P00489); experiment: Enzyme inhibition assay against rabbit muscle glycogen phosphorylase a (phosphate release from glucose-1-phosphate); assay type: biochemical; details: mean ± S.D. of three determinations; NI means no inhibition
T1 sequence (P00489 2-843 limits assumed): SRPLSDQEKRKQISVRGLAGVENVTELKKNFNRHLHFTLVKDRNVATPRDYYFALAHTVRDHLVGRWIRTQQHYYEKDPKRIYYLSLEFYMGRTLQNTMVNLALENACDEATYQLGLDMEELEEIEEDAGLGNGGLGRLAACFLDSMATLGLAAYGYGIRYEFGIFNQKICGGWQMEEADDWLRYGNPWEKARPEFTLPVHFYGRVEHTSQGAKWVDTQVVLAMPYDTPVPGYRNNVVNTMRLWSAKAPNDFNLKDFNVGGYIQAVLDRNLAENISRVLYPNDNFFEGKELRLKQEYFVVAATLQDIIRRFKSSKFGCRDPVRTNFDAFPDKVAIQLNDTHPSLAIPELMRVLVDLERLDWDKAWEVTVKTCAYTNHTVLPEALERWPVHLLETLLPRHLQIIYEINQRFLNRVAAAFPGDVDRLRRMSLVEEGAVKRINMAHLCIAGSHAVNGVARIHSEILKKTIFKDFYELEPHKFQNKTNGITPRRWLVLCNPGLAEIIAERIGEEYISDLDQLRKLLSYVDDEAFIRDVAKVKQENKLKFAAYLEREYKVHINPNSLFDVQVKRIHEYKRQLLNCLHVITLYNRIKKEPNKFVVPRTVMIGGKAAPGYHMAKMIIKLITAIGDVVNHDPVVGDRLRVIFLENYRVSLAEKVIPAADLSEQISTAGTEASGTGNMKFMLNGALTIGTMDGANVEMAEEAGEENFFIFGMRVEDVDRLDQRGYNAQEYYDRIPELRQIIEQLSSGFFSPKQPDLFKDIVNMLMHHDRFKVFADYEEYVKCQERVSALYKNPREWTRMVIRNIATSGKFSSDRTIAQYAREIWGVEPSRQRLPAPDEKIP
Method: To understand the validity of the synthetic probes, the synthesized probes 1–3 were evaluated in an enzyme inhibition assay against rabbit muscle glycogen phosphorylase a (RMGPa). As described previously, the activity of RMGPa was measured through detecting the release of phosphate from glucose-1-phosphate in the direction of glycogen synthesis, based on the published method.
The inhibitory activity of the test compounds against RMGPa was monitored using a microplate reader (BIO-RAD, Bio-Rad Laboratories, Hercules, CA, USA), based on the published method. In brief, RMGPa activity was measured in the direction of glycogen synthesis by the release of phosphate from glucose-1-phosphate. Each test compound was dissolved in DMSO and diluted at different concentrations for IC50 determination. The enzyme was added to 100 μL of buffer containing 50 mM Hepes (pH = 7.2), 100 mM KCl, 2.5 mM MgCl2, 0.5 mM glucose-1-phosphate, 1 mg/mL glycogen, and the test compound in 96-well microplates (Costar, Corning Incorporated, Corning, NY, USA). After the addition of 150 μL of 1 M HCl containing 10 mg/mL ammonium molybdate and 0.38 mg/mL malachite green, reactions were run at 22 °C for 25 min, and then the phosphate absorbance was measured at 655 nm. The IC50 values were estimated by fitting the inhibition data to a dose-dependent curve using a logistic derivative equation.

[2] = tested on: serum proteomes prepared from rats with acute myocardial infarction; experiment: Photoaffinity labeling of serum proteomes, gel-based fluorescence imaging; assay type: binding, rat; details: UV light 30 min
Method: Based on the results of the potency in the enzyme assay, probe 1 was selected and used throughout photolabeling studies (Figure 3). The serum proteomes prepared from rats with acute myocardial infarction were incubated with probe 1 at concentrations of […], and 300, 100, and 30 nM, respectively. The mixture was exposed to UV light for 30 min, and then was imaged using the Tanon-6100 Chemiluminescent Imaging system.
An attempt to semi-quantitatively analyze the serum-free GP level after an acute myocardial infarction was explored. Serum blanks were added in increasing quantities of RMGPa (0, 12.5, 25, 50, and 100 ng/mL at a final concentration) in the presence of an excess of probe 1 (10 μM). In the same way, probe 1 was added to the serum in an acute myocardial infarction model in a rat. […]
Blood samples prepared from rats with acute myocardial infarction were drawn from the abdominal aorta in rats after coronary ligation using a 23-gauge needle. […] The protein concentration of the suspension was measured according to the Bradford method. […] The band densities were calculated with Quantity One software 4.6.2 (Bio-Rad Laboratories, Inc., Hercules, CA, USA). […] The data were recorded on an LTQ-Orbitrap Fusion mass spectrometer (ThermoFisher Scientific Inc., Waltham, MA, USA) coupled to an Easy-nLC 1000 LC System (Thermo Fischer Scientic). […]

Structure (SMILES) | IC50 [1] | Labelling of protein bands with MW of about 90–100 kDa in semi-quantitative analysis ([2]; 10 μM probe, rat AMI serum and serum blanks with added RMGPa 0–100 ng/mL) | Labelling of protein band with MW of about 90–100 kDa (consistent with MW of GP) ([2]; probe at 10, 3, and 1 mM, and 300, 100, and 30 nM, 2.0 mg/mL proteomes) | melting point | RMGPa IC50 [1]
CN(C)c1cccc2c(S(=O)(=O)NCCCC[C@H](NC(=O)c3ccc(C(=O)c4ccccc4)cc3)C(=O)OCc3cn(CCOCCOCCOCCOC4CCN(C(=O)[C@H](Cc5ccc(F)cc5)NC(=O)c5cc6cc(Cl)ccc6[nH]5)CC4)nn3)cccc12 [Compound 1, N-[(S)-1-(4-{2-[2-(2-{2-[4-({[(S)-2-(4-Benzoylbenzamido)-6-(dansylamide)hexanoyl]oxy}methyl)-1H-1,2,3-triazol-1-yl]ethoxy}ethoxy)ethoxy]ethoxy}piperidin-1-yl)-3-(4-fluorophenyl)-1-oxopropan-2-yl]-5-chloro-1H-indole-2-carboxamide] | 13.2 ± 5.87 µM | efficiently labeled | clearly labelled | 151 to 153 °C | –
CN(C)c1cccc2c(S(=O)(=O)NCCCCC(NC(=O)c3ccc(C(=O)c4ccccc4)cc3)C(=O)N[C@@H](CCCCNC(=O)CCCC[C@@H]3SC[C@H]4NC(=O)N[C@@H]34)C(=O)OCc3cn(CCOCCOCCOCCOC4CCN(C(=O)[C@H](Cc5ccc(F)cc5)NC(=O)c5cc6cc(Cl)ccc6[nH]5)CC4)nn3)cccc12 (stereo partly drawn) [Compound 2, N-[(S)-1-(4-{2-[2-(2-{2-[4-({[(S)-2-[(S)-2-(4-Benzoylbenzamido)-6-(dansylamide)hexanamido]-6-(5-{(3aR,4S,6aS)-2-oxohexahydro-1H-thieno[3,4-d]imidazol-1-yl}pentanamido)hexanoyl]oxy}methyl)-1H-1,2,3-triazol-1-yl]ethoxy}ethoxy)ethoxy]ethoxy}piperidin-1-yl)-3-(4-fluorophenyl)-1-oxopropan-2-yl]-5-chloro-1H-indole-2-carboxamide] | – | – | – | 159 to 161 °C | no inhibitory activity
[N-]=[N+]=NCC(=O)NCCCC[C@H](NC(=O)c1ccc(C(=O)c2ccccc2)cc1)C(=O)OCc1cn(CCOCCOCCOCCOC2CCN(C(=O)[C@H](Cc3ccc(F)cc3)NC(=O)c3cc4cc(Cl)ccc4[nH]3)CC2)nn1 [Compound 3, N-[(S)-1-(4-{2-[2-(2-{2-[4-({[(S)-2-(4-Benzoylbenzamido)-6-(2-azidoacetamido)hexanoyl]oxy}methyl)-1H-1,2,3-triazol-1-yl]ethoxy}ethoxy)ethoxy]ethoxy}piperidin-1-yl)-3-(4-fluorophenyl)-1-oxopropan-2-yl]-5-chloro-1H-indole-2-carboxamide] | – | – | – | 113 to 115 °C | –
O=C(N[C@@H](Cc1ccc(F)cc1)C(=O)N1CCC(OCCOCCOCCOCCO)CC1)c1cc2cc(Cl)ccc2[nH]1 [Compound 11, N-{(S)-1-[4-(2-{2-[2-(2-Hydroxyethoxy)ethoxy]ethoxy}ethoxy)piperidin-1-yl]-3-(4-fluorophenyl)-1-oxopropan-2-yl}-5-chloro-1H-indole-2-carboxamide] | 0.43 ± 0.16 µM | – | – | 103 to 105 °C | –
